Patent publication US10448639B2, “Fungicidal pyrazoles” (FMC CORPORATION, priority 2009, dated 2019)

Experiments:
[1] = tested on: Puccinia recondita f. sp. tritici; assay: Test I: wheat leaf rust, preventive spray on wheat seedlings, visual disease rating; details: for Test I rating (% disease control) / Test I disease control rating: wheat leaf rust, 100 = 100% disease control; for Test I disease control rating: sprayed the day before inoculation, 0 = no disease control relative to controls
Botrytis cinerea = assay: Test B: tomato Botrytis, preventive spray on tomato seedlings, visual disease rating; details: for Test B rating (% disease control) / Test B disease control rating: tomato Botrytis, 100 = 100% disease control; for Test B disease control rating: 0 = no disease control relative to controls
Excerpt: General protocol for preparing test suspensions for Tests A-J: the test compounds were first dissolved in acetone in an amount equal to 3% of the final volume and then suspended at the desired concentration (in ppm) in acetone and purified water (50/50 mix by volume) containing 250 ppm of the surfactant Trem® 014 (polyhydric alcohol esters). The resulting test suspensions were then used in Tests A-J. Spraying a 200 ppm test suspension to the point of run-off on the test plants was the equivalent of a rate of 500 g/ha. Unless otherwise indicated, the rating values indicate a 200 ppm test suspension was used. (An asterisk “*” next to the rating value indicates a 40 ppm test suspension was used.)
The test suspension was sprayed to the point of run-off on tomato seedlings. The following day the seedlings were inoculated with a spore suspension of Botrytis cinerea (the causal agent of tomato Botrytis) and incubated in saturated atmosphere at 20° C. for 48 h, and then moved to a growth chamber at 24° C. for 3 additional days, after which time visual disease ratings were made.

Septoria tritici = assay: Test G: wheat leaf blotch, preventive spray on wheat seedlings, visual disease rating; details: for Test G rating (% disease control) / Test G disease control rating: wheat leaf blotch, 100 = 100% disease control; for Test G disease control rating: sprayed the day before inoculation, 0 = no disease control relative to controls
Alternaria solani = assay: Test C: tomato early blight, preventive spray on tomato seedlings, visual disease rating; details: for Test C rating (% disease control) / Test C disease control rating: tomato early blight, 100 = 100% disease control; for Test C disease control rating: 0 = no disease control relative to controls
[2] = tested on: Erysiphe graminis f sp. tritici; assay: Test J: wheat powdery mildew, preventive spray on wheat seedlings, visual disease rating; details: for Test J rating (% disease control) / Test J disease control rating: wheat powdery mildew, 100 = 100% disease control; for Test J disease control rating: sprayed the day before inoculation, 0 = no disease control relative to controls
Septoria nodorum = assay: Test F: Septoria glume blotch, preventive spray on wheat seedlings, visual disease rating; details: for Test F rating (% disease control) / Test F disease control rating: 100 = 100% disease control; for Test F disease control rating: 0 = no disease control relative to controls
[3] = tested on: Puccinia recondita f. sp. tritici; assay: Test H: wheat leaf rust, curative spray on inoculated wheat seedlings, visual disease rating; details: for Test H rating (% disease control) / Test H disease control rating: wheat leaf rust, 100 = 100% disease control; for Test H disease control rating: sprayed after inoculation, 0 = no disease control relative to controls
[4] = preventive, 0 = no control relative to controls
[5] = 0 = no control relative to controls
[6] = Septoria glume blotch, 0 = no control relative to controls
[7] = curative, 0 = no control relative to controls
[8] = preventive spray, 0 = no control
[9] = Septoria glume blotch on wheat, preventive spray, 0 = no control

## Cc1nn(C)c(Oc2c(F)cc(C#N)cc2F)c1-c1ccccc1Br [compound 272]
[1]; [4]
  Test I rating (% disease control): 99%
Botrytis cinerea; [5]
  Test B rating (% disease control): 100%
Septoria tritici; [5]
  Test G rating (% disease control): 99%
Alternaria solani; [5]
  Test C rating (% disease control): 97%
[2]; [5]
  Test J rating (% disease control): 99%
Septoria nodorum; [6]
  Test F rating (% disease control): 99%
[3]; [7]
  Test H rating (% disease control): 0%

## COc1cc(F)c(-c2c(C)nn(C)c2Oc2c(F)cccc2F)c(F)c1 [compound 84]
[1]; [8]
  Test I rating (% disease control): 100%
Botrytis cinerea; [8]
  Test B rating (% disease control): 100%
Septoria tritici; [8]
  Test G rating (% disease control): 100%
Alternaria solani; [8]
  Test C rating (% disease control): 100%
[2]; [8]
  Test J rating (% disease control): 99%
Septoria nodorum; [9]
  Test F rating (% disease control): 78%
[3]; curative spray, 0 = no control
  Test H rating (% disease control): 98%

## Cc1cc(Oc2c(-c3c(F)cc(F)cc3F)c(C)nn2C)ccc1Cl [compound 157]
[1]; [4]
  Test I rating (% disease control): 54%
Botrytis cinerea; [5]
  Test B rating (% disease control): 0%
Septoria tritici; [5]
  Test G rating (% disease control): 0%
Alternaria solani; [5]
  Test C rating (% disease control): 0%
[2]; [5]
  Test J rating (% disease control): 73%
Septoria nodorum; [6]
  Test F rating (% disease control): 0%
[3]; [7]
  Test H rating (% disease control): 0%

## Cc1nn(C)c(Nc2c(Cl)cc(F)cc2Br)c1-c1ccc(F)cc1F [compound 348]
[1]
  Test I disease control rating: 100%
Botrytis cinerea
  Test B disease control rating: 100%
Septoria tritici
  Test G disease control rating: 100%
Alternaria solani
  Test C disease control rating: 80%
[2]
  Test J disease control rating: 100%
Septoria nodorum; Septoria glume blotch on wheat
  Test F disease control rating: 94%
[3]
  Test H disease control rating: 19%

## Cc1nn(C)c(Nc2ccc(F)c(C#N)c2)c1-c1ccc(F)cc1Cl [compound 234]
[1]; [4]
  Test I rating (% disease control): 92%
Botrytis cinerea; [5]
  Test B rating (% disease control): 99%
Septoria tritici; [5]
  Test G rating (% disease control): 99%
Alternaria solani; [5]
  Test C rating (% disease control): 0%
[2]; [5]
  Test J rating (% disease control): 84%
Septoria nodorum; [6]
  Test F rating (% disease control): 0%
[3]; [7]
  Test H rating (% disease control): 0%

## COc1cc(F)c(-c2c(C)nn(C)c2Nc2c(F)cc(F)cc2F)c(F)c1 [Compound 24, 4-(2,6-difluoro-4-methoxyphenyl)-1,3-dimethyl-N-(2,4,6-trifluorophenyl)-1H-pyrazol-5-amine]
[1]; 192 h, read-out: Test I rating (% disease control)
  pest or weed control at 200 µg/mL: 97%
Botrytis cinerea; Botrytis cinerea, in Solanum lycopersicum, 120 h, read-out: Test B rating (% disease control)
  pest or weed control at 200 µg/mL: 98%
Septoria tritici; Zymoseptoria tritici, in Triticum aestivum, 504 h, read-out: Test G rating (% disease control)
  pest or weed control at 200 µg/mL: 94%
Alternaria solani; Alternaria solani, in Solanum lycopersicum, 168 h, read-out: Test C rating (% disease control)
  pest or weed control at 200 µg/mL: 100%
[2]; Blumeria graminis, in Triticum aestivum, 192 h, read-out: Test J rating (% disease control)
  pest or weed control at 200 µg/mL: 100%
Septoria nodorum; Parastagonospora nodorum, in Triticum aestivum, 192 h, read-out: Test F rating (% disease control)
  pest or weed control at 200 µg/mL: 0%
[3]; 144 h, read-out: Test H rating (% disease control)
  pest or weed control at 200 µg/mL: 9%

## COc1cc(F)c(-c2c(C)nn(C)c2Nc2ncc(Cl)cc2Cl)c(F)c1 [compound 102]
[1]; [8]
  Test I rating (% disease control): 100%
Botrytis cinerea; [8]
  Test B rating (% disease control): 100%
Septoria tritici; [8]
  Test G rating (% disease control): 99%
Alternaria solani; [8]
  Test C rating (% disease control): 100%
[2]; [8]
  Test J rating (% disease control): 98%
Septoria nodorum; [9]
  Test F rating (% disease control): 98%
[3]; curative spray, 0 = no control
  Test H rating (% disease control): 0%

## Cc1nn(C)c(Nc2ccc(F)cc2F)c1-c1c(F)cc(O)cc1F [compound 103]
[1]; [8]
  Test I rating (% disease control): 91%
Botrytis cinerea; [8]
  Test B rating (% disease control): 100%
Septoria tritici; [8]
  Test G rating (% disease control): 95%
Alternaria solani; [8]
  Test C rating (% disease control): 64%
[2]; [8]
  Test J rating (% disease control): 0%
Septoria nodorum; [9]
  Test F rating (% disease control): 0%
[3]; curative spray, 0 = no control
  Test H rating (% disease control): 0%

## Cc1nn(C)c(Nc2ccc(F)cc2)c1-c1c(F)cc(C#N)cc1F [compound 111]
[1]; [8]
  Test I rating (% disease control): 97%
Botrytis cinerea; [8]
  Test B rating (% disease control): 99%
Septoria tritici; [8]
  Test G rating (% disease control): 99%
Alternaria solani; [8]
  Test C rating (% disease control): 75%
[2]; [8]
  Test J rating (% disease control): 99%
Septoria nodorum; [9]
  Test F rating (% disease control): 90%
[3]; curative spray, 0 = no control
  Test H rating (% disease control): 0%

## Cc1nn(C)c(Nc2ncc(Cl)cc2Cl)c1-c1c(F)cccc1F [compound 321]
[1]
  Test I disease control rating: 99%
Botrytis cinerea
  Test B disease control rating: 100%
Septoria tritici
  Test G disease control rating: 100%
Alternaria solani
  Test C disease control rating: 99%
[2]
  Test J disease control rating: 100%
Septoria nodorum; Septoria glume blotch on wheat
  Test F disease control rating: 78%
[3]
  Test H disease control rating: 9%

## COc1cc(OC)cc(-c2c(C)nn(C)c2Oc2c(F)cc(C#N)cc2F)c1 [compound 85]
[1]; [8]
  Test I rating (% disease control): 19%
Botrytis cinerea; [8]
  Test B rating (% disease control): 0%
Septoria tritici; [8]
  Test G rating (% disease control): 17%
Alternaria solani; [8]
  Test C rating (% disease control): 0%
[2]; [8]
  Test J rating (% disease control): 0%
Septoria nodorum; [9]
  Test F rating (% disease control): 0%
[3]; curative spray, 0 = no control
  Test H rating (% disease control): 0%

## Cc1nn(C)c(Oc2ccc(C#N)cc2F)c1-c1c(F)cccc1Cl [compound 342]
[1]
  Test I disease control rating: 100%
Botrytis cinerea
  Test B disease control rating: 100%
Septoria tritici
  Test G disease control rating: 100%
Alternaria solani
  Test C disease control rating: 33%
[2]
  Test J disease control rating: 100%
Septoria nodorum; Septoria glume blotch on wheat
  Test F disease control rating: 99%
[3]
  Test H disease control rating: 0%

## Cc1nn(C)c(Nc2ccc(F)cc2F)c1-c1c(Cl)cccc1Cl [compound 339]
[1]
  Test I disease control rating: 98%
Botrytis cinerea
  Test B disease control rating: 100%
Septoria tritici
  Test G disease control rating: 100%
Alternaria solani
  Test C disease control rating: 0%
[2]
  Test J disease control rating: 100%
Septoria nodorum; Septoria glume blotch on wheat
  Test F disease control rating: 0%
[3]
  Test H disease control rating: 0%

## COc1ccc(Nc2c(-c3ccc(F)cc3F)c(C)nn2C)cc1OC [compound 72]
[1]; [8]
  Test I rating (% disease control): 0%
Botrytis cinerea; [8]
  Test B rating (% disease control): 0%
Septoria tritici; [8]
  Test G rating (% disease control): 0%
Alternaria solani; [8]
  Test C rating (% disease control): 0%
[2]; [8]
  Test J rating (% disease control): 0%
Septoria nodorum; [9]
  Test F rating (% disease control): 0%
[3]; curative spray, 0 = no control
  Test H rating (% disease control): 59%

## Cc1nn(C)c(Oc2ncc(C(F)(F)F)cc2Cl)c1-c1ccc(F)cc1Br [compound 261]
[1]; [4]
  Test I rating (% disease control): 0%
Botrytis cinerea; [5]
  Test B rating (% disease control): 0%
Septoria tritici; [5]
  Test G rating (% disease control): 0%
Alternaria solani; [5]
  Test C rating (% disease control): 0%
[2]; [5]
  Test J rating (% disease control): 47%
Septoria nodorum; [6]
  Test F rating (% disease control): 0%
[3]; [7]
  Test H rating (% disease control): 0%

## COc1cc(F)ccc1Nc1c(-c2c(F)cccc2F)c(C)nn1C [compound 199]
[1]; [4]
  Test I rating (% disease control): 68%
Botrytis cinerea; [5]
  Test B rating (% disease control): 99%
Septoria tritici; [5]
  Test G rating (% disease control): 99%
Alternaria solani; [5]
  Test C rating (% disease control): 86%
[2]; [5]
  Test J rating (% disease control): 98%
Septoria nodorum; [6]
  Test F rating (% disease control): 0%
[3]; [7]
  Test H rating (% disease control): 0%

## Cc1nn(C)c(Nc2ccc(F)cc2F)c1-c1c(F)cc(C#N)cc1F [compound 106]
[1]; [8]
  Test I rating (% disease control): 99%
Botrytis cinerea; [8]
  Test B rating (% disease control): 100%
Septoria tritici; [8]
  Test G rating (% disease control): 100%
Alternaria solani; [8]
  Test C rating (% disease control): 99%
[2]; [8]
  Test J rating (% disease control): 100%
Septoria nodorum; [9]
  Test F rating (% disease control): 90%
[3]; curative spray, 0 = no control
  Test H rating (% disease control): 82%
